According to ChEMBL document CHEMBL5120887, “Hybrid Diterpenic Meroterpenoids from an Endophytic Penicillium sp. Induced by Chemical Epigenetic Manipulation” (J Nat Prod, 2022):
pIC50: −log10 of the molar value.

Target: Acetylcholinesterase (Homo sapiens, UniProt P22303)
Assay: Inhibition of AChE in human Erythrocyte incubated for 20 mins by Ellman reagent based spectrophotometry
Format: cell-based

Sequence of Acetylcholinesterase (P22303 whole entry): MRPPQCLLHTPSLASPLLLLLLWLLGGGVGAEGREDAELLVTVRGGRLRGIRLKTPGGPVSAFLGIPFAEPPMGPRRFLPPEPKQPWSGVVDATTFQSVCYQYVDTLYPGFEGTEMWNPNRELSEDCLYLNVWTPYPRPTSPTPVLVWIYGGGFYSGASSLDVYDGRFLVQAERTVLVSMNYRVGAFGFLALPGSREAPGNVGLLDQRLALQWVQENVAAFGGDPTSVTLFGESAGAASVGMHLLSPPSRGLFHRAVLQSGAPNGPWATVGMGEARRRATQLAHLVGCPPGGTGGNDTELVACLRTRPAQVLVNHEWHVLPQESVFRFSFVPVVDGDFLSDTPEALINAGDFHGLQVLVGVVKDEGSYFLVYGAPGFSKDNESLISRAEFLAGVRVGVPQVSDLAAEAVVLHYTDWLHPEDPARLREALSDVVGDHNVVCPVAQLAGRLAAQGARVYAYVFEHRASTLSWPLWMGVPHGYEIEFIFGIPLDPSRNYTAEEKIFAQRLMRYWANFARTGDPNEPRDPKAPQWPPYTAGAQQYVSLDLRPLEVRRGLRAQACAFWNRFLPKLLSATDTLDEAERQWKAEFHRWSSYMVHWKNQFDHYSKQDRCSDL

C=C(C)[C@]1(O)CC[C@@]2(C)C3=Cc4c(cc(-c5cccnc5)oc4=O)O[C@]3(C)[C@@H](O)C[C@@H]2[C@@]12CCC(=O)OC2
pIC50: 4.86
